This is an account of results in patent publication US20260191858A1, “COMBINATION THERAPIES” (Kallyope, Inc., priority 2022, published 2026).

The target in one assay is T1, human GPR40 (Homo sapiens, UniProt O14842).
T1 construct: host or cells: CHO-K1
As to the kind of experiment: Inositol phosphate accumulation assay in CHO-K1 cells expressing human GPR40. Type of assay: cell-based. As to conditions: CHO-K1 human GPR40, IP1 HTRF, 90 min. On the procedure: CHO-K1 cells expressing human GPR40 were purchased from DiscoverX (95-1005C2). HEK293 cells expressing mouse FFAR1 were prepared using a mouse FFAR1 carrying plasmid purchased from OriGene Technologies (MR222997). The cells were transfected using Lipofectamine 2000 using manufacturer instructions and stable cell line was established from a single cell using geneticine selection. Assay ready frozen (ARF) cells were prepared and used throughout the study.
The assay was performed in a 384-well plate format using IP1 assay kit from Cis-Bio. ARF cells expressing FFAR1 (mouse and human) were thawed, washed and then plated in the appropriate medium (F12 based medium for CHO hFFAR1 and DMEM based medium for HEK293 mFFAR1—both were supplemented with 10% FBS and penicillin/streptomycin). 20 μL of 3.5×10^5 cells/mL were plated on a Poly D-Lysine coated 384-well white plate. The cells were then incubated for 16 hr at 37° C./5% CO2. After 16 hr the medium was removed and 15 μL of stimulation buffer containing the test compounds was added to the cells. The plates were then incubated for 90 min at 37° C./5% CO2. 5 μL of detection buffer (prepared as described in the IP-one kit) was added to each well and the plates were incubated at RT for 1 hr.
[…] was measured using ClarioSTAR plate reader, calculating the ratio between emissions at 665 nm and 620 nm (HTRF ratio). HTRF ratio for positive (Max) and negative (Min) controls were used to normalize HTRF data and generate values for % activity. EC50 and Max activity values were determined using a standard 4-parameter fit.
For orientation: Time-resolved FRET reads energy transfer from a long-lived donor to a nearby acceptor.

The test system of another assay is male C57BL/6J mice. The assay is described as follows: Glucose excursion during oral glucose tolerance test in mice. Type of assay: in vivo. As to conditions: OGTT in mice. On the procedure: The effects of GPR40 agonists of Formula (B) and a GPR119 agonist of Formula (A) alone and in combination on glucose excursion during an oral glucose tolerance test were assessed in mice. The effects of the combination of a compound of Formula (A) and compounds of Formula (B) with linagliptin (a DPP-4 inhibitor) or metformin were also assessed. Male C57BL/6J mice, approximately 10 weeks old, were acclimated to the facility and the oral dosing procedure. Mice were randomized into balanced treatment groups using body weight. Baseline glucose was assessed immediately before compound administration. […] Blood was assessed for glucose levels 20 min, 40 min, 60 min, and 120 min post D-(+)-glucose administration. The AUCs for blood glucose measures were calculated for each treatment from 0 to 120 min. Statistical analysis was performed on AUCs using one-way ANOVA versus vehicle, with Tukey's post-test.

The structures appear in SMILES notation.

T1 sequence (O14842 whole entry): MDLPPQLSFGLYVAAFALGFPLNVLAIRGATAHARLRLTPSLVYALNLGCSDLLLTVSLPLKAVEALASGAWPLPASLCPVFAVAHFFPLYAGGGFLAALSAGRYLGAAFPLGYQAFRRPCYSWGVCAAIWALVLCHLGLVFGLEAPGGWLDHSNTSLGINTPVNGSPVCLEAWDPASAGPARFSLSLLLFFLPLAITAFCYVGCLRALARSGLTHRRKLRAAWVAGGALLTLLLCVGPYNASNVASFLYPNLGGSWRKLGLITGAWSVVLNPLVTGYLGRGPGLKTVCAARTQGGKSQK

On to `COc1ccc(CCCC(C)(C)C)c(N2CCC(COc3cc([C@H](C)CP(C)(=O)O)ccn3)CC2)c1` [Compound B9, ((S)-2-(2-((1-(2-(4,4-dimethylpentyl)-5-methoxyphenyl)piperidin-4-yl)methoxy)pyridin-4-yl)propyl)(methyl)phosphinic acid], for which the half-maximal effective concentration (EC50) on human GPR40 was in the range of 250 to 1000 nM. Same read-out and setting: in the case of `COc1ccc(CCCC(C)(C)C)c(N2CCC(COc3cccc([C@H](C)CP(C)(=O)O)c3)CC2)c1` [Compound B10, ((S)-2-(3-((1-(2-(4,4-dimethylpentyl)-5-methoxyphenyl)piperidin-4-yl)methoxy)phenyl)propyl)(methyl) phosphinic acid] it was at most 50 nM. Same read-out and setting: in the case of `COc1ccc(CCCC(C)(C)C)c(N2CCC(COc3cccc([C@@H](C)CP(C)(=O)O)c3)CC2)c1` [Compound B11, ((R)-2-(3-((1-(2-(4,4-dimethylpentyl)-5-methoxyphenyl)piperidin-4-yl)methoxy)phenyl)propyl)(methyl) phosphinic acid] it was 50 to 250 nM; in that of `CC[C@@H](Cc1cccc(OCC2CCN(c3cc(OC)ccc3CCCC(C)(C)C)CC2)c1)P(C)(=O)O` [Compound B12, ((S)-1-(3-((1-(2-(4,4-dimethylpentyl)-5-methoxyphenyl)piperidin-4-yl)methoxy)phenyl)butan-2-yl)(methyl)phosphinic acid], 250 to 1000 nM; in that of `CC[C@H](Cc1cccc(OCC2CCN(c3cc(OC)ccc3CCCC(C)(C)C)CC2)c1)P(C)(=O)O` [Compound B13, ((R)-1-(3-((1-(2-(4,4-dimethylpentyl)-5-methoxyphenyl)piperidin-4-yl)methoxy)phenyl)butan-2-yl)(methyl)phosphinic acid], 250 to 1000 nM. As to `CN(C)C(=N)N=C(N)N` [metformin], in the assay with male C57BL/6J mice, the post-prandial glucose excursion result was “suppressed post-prandial glucose excursion”.

For orientation: EC50 means the concentration giving half of the maximal effect. A low value points to a more potent agent.
